The source made the active and inactive calls.
Legend:
[1] = Luminescence Cell-Based Dose Retest to Confirm Inhibitors of Cancer Stem Cells. [Related pubchem assays (depositor defined):AID2717, AID2721]; assay type: functional; conditions: Homo sapiens
cells = assay type: functional
[2] = viability loss in THP-1 monocytes – THP-1 cells, cytotoxicity control for Vif-APOBEC3G degradation inhibitor project, dose response (AID 1117359); assay type: functional; conditions: THP-1
[3] = biological target: Matrix metalloproteinase-14 (Homo sapiens, UniProt P50281); assay: Dose Response confirmation of uHTS hits for a small molecule inhibitors of MT1-MMP activation in a fluorescence assay set 2.; assay type: functional
[4] = THP-1 cell cytotoxicity, dose response, cytotoxicity control for non-replicating M. tuberculosis project (AID 489025); assay type: functional
Vero = assay: viability of Vero cells under compound – cytotoxicity control for flavivirus capping enzyme inhibitors (AID 588742); assay type: functional; conditions: Chlorocebus sabaeus
[5] = biological target: DNA (cytosine-5)-methyltransferase 1 (Homo sapiens, UniProt P26358); assay: inhibition of DNA methylation by DNMT1 – biochemical, fluorescent molecular beacon, confirmation (AID 602386); assay type: functional
Genome polyprotein [6] = biological target: Genome polyprotein (Hepatitis C virus, UniProt Q2Q167); assay: disruption of hepatitis C core self-association – biochemical, TR-FRET, dose response (AID 2159); design: species or system Hepacivirus hominis;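 note: blocks dimerization of HCV core protein measured by TR-FRET between tagged core106 pairs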
Genome polyprotein [7] = biological target: Genome polyprotein (dengue virus type 2, UniProt P29990); assay: flavivirus cap methylation enzyme inhibition – biochemical, confirmation dose response, primary screen (AID 588689); assay type: functional
[8] = A High Throughput Confirmatory Assay used to Identify Novel Compounds that Inhibit Mycobacterium Tuberculosis in the absence of Glycerol.; assay type: functional
Protein Tat = biological target: T1, Protein Tat (Human immunodeficiency virus type 1 group M subtype B (isolate HXB2)(HIV-1), UniProt P04608); assay type: functional;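 note: tat binding to TAR RNA read out by fluorescence polarization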
T1 sequence (P04608 whole entry): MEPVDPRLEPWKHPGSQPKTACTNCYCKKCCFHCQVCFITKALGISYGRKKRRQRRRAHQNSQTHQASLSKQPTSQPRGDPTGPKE

[9] = microbe, parasite or virus in culture; assay type: functional; conditions: Mycobacterium tuberculosis
[10] = biological target: T2, Sentrin-specific protease 6 (Homo sapiens, UniProt Q9GZR1); assay: SAR Analysis of small molecule inhibitors of Sentrin-specific protease 6 (SENP6) using a Luminescent assay. [Related pubchem assays (depositor defined):AID2582, AID2599]; assay type: functional
T2 sequence (Q9GZR1 whole entry): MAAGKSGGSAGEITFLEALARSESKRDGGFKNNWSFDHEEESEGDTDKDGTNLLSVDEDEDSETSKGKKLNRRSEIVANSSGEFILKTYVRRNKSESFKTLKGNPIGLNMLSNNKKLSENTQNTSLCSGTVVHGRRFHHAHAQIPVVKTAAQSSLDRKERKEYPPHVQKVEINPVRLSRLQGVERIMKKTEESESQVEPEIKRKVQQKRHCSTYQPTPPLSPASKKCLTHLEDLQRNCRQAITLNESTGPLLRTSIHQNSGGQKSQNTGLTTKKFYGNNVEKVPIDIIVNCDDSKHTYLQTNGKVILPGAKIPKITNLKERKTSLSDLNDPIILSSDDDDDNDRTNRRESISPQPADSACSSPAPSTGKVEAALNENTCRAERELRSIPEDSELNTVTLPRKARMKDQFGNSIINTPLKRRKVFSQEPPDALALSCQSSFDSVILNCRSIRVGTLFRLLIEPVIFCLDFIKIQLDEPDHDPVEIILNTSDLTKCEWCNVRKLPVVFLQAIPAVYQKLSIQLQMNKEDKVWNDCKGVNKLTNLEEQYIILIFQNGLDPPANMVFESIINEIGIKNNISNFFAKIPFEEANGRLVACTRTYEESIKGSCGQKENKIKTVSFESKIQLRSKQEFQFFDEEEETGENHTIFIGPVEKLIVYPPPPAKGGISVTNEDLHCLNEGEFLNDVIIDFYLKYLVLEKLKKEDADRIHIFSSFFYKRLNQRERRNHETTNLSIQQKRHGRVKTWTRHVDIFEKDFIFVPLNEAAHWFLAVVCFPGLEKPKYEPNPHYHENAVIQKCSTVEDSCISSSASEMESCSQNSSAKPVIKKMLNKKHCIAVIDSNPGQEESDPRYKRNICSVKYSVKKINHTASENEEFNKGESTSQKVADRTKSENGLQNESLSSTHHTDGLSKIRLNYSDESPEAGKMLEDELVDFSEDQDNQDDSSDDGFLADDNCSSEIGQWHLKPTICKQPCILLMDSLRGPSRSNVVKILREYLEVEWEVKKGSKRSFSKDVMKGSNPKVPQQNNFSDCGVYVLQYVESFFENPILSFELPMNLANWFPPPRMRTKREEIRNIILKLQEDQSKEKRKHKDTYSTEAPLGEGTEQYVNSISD

Caspase-3 [11] = biological target: T3, Caspase-3 (Homo sapiens, UniProt P42574); assay: SAR Analysis of small molecule inhibitors of Sentrin-specific proteases (SENPs) using a Caspase-3 Selectivity assay. [Related pubchem assays (depositor defined):AID2540, AID2599, AID434973, AID489001]; assay type: functional
T3 sequence (P42574 whole entry): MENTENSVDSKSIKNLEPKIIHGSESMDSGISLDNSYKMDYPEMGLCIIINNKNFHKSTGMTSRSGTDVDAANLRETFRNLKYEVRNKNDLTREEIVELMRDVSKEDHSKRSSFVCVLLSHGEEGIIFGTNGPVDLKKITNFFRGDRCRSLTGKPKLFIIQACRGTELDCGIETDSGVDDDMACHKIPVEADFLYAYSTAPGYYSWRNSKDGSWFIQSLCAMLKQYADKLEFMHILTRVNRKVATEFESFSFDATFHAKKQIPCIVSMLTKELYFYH

[12] = biological target: T4, Sentrin-specific protease 8 (Homo sapiens, UniProt Q96LD8); assay: inhibition of human SENP8 cleavage activity – biochemical, luminescence, SAR follow-up (AID 504501); assay type: functional
T4 sequence (Q96LD8 whole entry): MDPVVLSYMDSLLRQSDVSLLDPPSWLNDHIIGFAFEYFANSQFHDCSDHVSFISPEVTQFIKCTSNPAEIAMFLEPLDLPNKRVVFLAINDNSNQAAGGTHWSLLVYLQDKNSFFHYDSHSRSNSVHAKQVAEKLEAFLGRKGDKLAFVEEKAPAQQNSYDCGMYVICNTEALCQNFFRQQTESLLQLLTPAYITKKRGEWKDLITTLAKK

[13] = biological target: T5, Sentrin-specific protease 7 (Homo sapiens, UniProt Q9BQF6); assay: inhibition of human SENP7 cleavage activity – biochemical, luminescence, SAR follow-up (AID 504497); assay type: functional
T5 sequence (Q9BQF6 whole entry): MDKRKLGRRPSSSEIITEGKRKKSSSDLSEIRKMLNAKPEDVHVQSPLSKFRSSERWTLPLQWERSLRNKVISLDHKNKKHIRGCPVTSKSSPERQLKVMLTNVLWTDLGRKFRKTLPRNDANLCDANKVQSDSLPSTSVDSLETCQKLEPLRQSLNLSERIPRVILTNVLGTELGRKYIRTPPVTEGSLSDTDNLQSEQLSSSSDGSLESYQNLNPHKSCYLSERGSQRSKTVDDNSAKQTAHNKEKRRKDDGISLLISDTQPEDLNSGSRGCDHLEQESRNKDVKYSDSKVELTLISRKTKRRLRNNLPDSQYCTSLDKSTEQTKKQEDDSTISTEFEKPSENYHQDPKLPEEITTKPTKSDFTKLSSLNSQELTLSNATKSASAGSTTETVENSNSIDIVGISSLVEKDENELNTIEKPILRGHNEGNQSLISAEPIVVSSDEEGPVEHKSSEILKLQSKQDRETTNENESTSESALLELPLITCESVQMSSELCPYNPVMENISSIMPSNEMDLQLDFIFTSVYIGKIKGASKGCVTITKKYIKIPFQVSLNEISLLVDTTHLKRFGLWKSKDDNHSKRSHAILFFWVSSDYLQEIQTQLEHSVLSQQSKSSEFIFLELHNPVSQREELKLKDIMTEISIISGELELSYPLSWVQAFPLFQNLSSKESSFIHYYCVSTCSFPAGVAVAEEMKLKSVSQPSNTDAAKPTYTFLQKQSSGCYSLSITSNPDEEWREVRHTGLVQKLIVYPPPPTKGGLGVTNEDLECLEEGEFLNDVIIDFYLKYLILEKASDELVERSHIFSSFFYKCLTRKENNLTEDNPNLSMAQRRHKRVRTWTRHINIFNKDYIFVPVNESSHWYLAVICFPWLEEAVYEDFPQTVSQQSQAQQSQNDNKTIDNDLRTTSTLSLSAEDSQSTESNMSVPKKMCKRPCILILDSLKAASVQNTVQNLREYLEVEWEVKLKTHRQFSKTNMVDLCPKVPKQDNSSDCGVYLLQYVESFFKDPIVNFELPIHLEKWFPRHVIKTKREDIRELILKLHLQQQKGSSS

[14] = biological target: T2, Sentrin-specific protease 6; assay type: functional
[15] = biological target: T4, Sentrin-specific protease 8; assay type: functional
[16] = biological target: T5, Sentrin-specific protease 7; assay type: functional
Caspase-3 [17] = biological target: T3, Caspase-3; assay type: functional
[18] = A Cell Based Secondary Assay to Explore Cytotoxicity in THP-1 Cells of Compounds that Modulate Mycobacterium tuberculosis in Media Containing Glycerol versus Media without Glycerol (2).; assay type: functional
[19] = Vero cell cytotoxicity, cytotoxicity control for M. tuberculosis inhibitor project, purified and synthesized samples, set 3 (AID 504684); assay type: functional
[20] = A Cell Based Secondary Assay to Explore Cytotoxicity in HepG2 Cells of Compounds that Modulate Mycobacterium tuberculosis in Media Containing Glycerol versus Media without Glycerol (2).; assay type: functional
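Throughout, for AC50: cells exposed to compound for roughly 70 hours or longer before luminescence read.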

Sequence of Genome polyprotein (dengue virus type 2, UniProt P29990) (P29990 2492-3391 limits assumed): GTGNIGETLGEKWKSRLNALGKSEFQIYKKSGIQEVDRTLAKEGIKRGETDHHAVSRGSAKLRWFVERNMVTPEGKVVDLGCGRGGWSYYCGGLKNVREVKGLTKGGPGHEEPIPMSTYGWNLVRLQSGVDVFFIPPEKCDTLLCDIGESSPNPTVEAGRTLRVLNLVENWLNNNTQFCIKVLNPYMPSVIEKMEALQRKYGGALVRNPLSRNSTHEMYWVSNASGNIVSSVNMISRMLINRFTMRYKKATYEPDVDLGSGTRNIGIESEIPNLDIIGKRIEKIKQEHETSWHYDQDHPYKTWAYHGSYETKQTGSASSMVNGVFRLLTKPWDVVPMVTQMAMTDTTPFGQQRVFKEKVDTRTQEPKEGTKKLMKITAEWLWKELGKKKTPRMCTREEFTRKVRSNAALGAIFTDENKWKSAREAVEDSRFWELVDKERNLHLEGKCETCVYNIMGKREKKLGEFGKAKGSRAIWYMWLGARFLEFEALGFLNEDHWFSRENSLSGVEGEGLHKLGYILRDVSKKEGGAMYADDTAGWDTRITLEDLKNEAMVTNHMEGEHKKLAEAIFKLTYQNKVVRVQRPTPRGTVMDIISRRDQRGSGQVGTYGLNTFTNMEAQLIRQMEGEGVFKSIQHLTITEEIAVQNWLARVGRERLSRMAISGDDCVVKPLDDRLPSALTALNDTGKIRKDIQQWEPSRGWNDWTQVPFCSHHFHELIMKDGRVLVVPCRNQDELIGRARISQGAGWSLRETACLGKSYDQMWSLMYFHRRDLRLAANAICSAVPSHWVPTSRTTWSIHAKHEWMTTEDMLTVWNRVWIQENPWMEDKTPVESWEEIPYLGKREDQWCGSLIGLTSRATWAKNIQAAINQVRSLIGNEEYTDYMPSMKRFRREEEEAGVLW
Sequence of DNA (cytosine-5)-methyltransferase 1 (P26358 whole entry): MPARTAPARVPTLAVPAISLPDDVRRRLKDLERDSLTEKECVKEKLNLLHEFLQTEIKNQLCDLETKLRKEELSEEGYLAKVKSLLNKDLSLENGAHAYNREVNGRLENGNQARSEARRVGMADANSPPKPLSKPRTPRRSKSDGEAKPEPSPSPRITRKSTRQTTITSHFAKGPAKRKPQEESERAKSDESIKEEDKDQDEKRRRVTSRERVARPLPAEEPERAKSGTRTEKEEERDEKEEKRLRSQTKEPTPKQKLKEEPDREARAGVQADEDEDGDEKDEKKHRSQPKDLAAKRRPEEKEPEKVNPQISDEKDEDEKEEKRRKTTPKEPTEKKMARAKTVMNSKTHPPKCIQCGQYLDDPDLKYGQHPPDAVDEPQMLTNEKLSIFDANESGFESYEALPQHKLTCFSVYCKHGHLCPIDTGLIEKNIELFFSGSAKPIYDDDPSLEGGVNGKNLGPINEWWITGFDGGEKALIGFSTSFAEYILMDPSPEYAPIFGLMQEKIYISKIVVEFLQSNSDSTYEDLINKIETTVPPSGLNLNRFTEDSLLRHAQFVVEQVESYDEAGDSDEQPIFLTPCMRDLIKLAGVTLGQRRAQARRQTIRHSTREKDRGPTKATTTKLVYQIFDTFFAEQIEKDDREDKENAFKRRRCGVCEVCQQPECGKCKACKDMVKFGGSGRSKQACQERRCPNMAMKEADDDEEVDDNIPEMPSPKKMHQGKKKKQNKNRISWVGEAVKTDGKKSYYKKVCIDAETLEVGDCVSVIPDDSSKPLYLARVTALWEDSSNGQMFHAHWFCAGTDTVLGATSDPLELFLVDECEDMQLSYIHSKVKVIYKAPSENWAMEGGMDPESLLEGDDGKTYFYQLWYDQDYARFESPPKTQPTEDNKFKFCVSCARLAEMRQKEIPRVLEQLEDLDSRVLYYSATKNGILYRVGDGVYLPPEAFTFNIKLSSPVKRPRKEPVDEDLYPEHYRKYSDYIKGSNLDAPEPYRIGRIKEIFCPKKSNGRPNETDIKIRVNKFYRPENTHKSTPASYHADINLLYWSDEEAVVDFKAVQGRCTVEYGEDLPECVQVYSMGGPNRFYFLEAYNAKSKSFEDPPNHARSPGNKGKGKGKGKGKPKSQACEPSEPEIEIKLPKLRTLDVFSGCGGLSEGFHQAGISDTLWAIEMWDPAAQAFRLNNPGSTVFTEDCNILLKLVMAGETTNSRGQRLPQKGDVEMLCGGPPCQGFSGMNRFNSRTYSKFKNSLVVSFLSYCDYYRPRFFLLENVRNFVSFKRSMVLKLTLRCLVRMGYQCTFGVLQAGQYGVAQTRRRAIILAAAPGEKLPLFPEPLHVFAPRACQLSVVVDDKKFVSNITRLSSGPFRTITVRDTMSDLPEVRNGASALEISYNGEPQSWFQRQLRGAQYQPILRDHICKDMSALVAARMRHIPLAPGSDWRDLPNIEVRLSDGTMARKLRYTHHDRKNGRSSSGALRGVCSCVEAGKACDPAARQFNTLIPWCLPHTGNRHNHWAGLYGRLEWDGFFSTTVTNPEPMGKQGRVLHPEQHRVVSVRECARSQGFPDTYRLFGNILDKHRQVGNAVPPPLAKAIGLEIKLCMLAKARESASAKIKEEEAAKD
Sequence of Genome polyprotein (Hepatitis C virus, UniProt Q2Q167) (Q2Q167 whole entry): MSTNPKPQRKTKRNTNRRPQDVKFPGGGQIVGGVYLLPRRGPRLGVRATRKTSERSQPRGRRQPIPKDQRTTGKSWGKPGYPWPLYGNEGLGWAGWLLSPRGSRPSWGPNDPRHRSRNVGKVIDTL

In the case of `Cn1cccc1/C=C1/C(=O)NC(=S)N(Cc2ccc(F)cc2)C1=O`, the AC50 [1] was 1.18 µM (active), the IC50 (cells) was 33.9 µM (active) and the CC50 [2] was > 40 µM (active). For the same molecule, the IC50 [3] was 55.3 µM (inactive), the CC50 [4] was 14.5 µM (active) and the CC50 (Vero) was > 40 µM (active). For the same molecule, the IC50 [5] was 3.55 µM (active), the IC50 (Genome polyprotein [6]) was > 49.8 µM (not active) and the IC50 (Genome polyprotein [7]) was > 100 µM (active). For the same molecule, the IC50 [8] was > 100 µM (active), the IC50 (Protein Tat) was > 100 µM (active) and the CC50 [9] was 23 µM (active).

In the case of `Cc1cc(O)c(-c2cc(C(=O)Nc3cccnc3)[nH]n2)cc1C`, the IC50 [10] was > 99 µM (inactive), the IC50 (Caspase-3 [11]) was 8.64 µM (active) and the IC50 [12] was > 99 µM (inactive). The IC50 [13] was 2.97 µM (active), the IC50 [14] was > 100 µM (inactive) and the IC50 [15] was > 100 µM (inactive). For the same molecule, the IC50 [16] was 3.61 µM (active) and the IC50 (Caspase-3 [17]) was 32.2 µM (active).

In the case of `Oc1ccccc1/C=N/Nc1ccnc(SCc2ccccc2)n1`, the CC50 [18] was 57.4 µM (active), the CC50 [19] was 26.7 µM (active) and the CC50 [20] was 18.5 µM (active). For the same molecule, the CC50 [9] was > 40 µM (active).

From ChEMBL document CHEMBL1201862, “PubChem BioAssay data set” (2004)
